Test results from patent publication US8513238B2 (Hoffmann-La Roche Inc., priority 2010, dated 2013).

Target: T1, human V1a receptor (Homo sapiens, UniProt P37288)
T1 construct: expressed in transfected cells; host or cells: HEK293 cells, transiently transfected; membranes prepared
Assay: human V1a receptor binding (3H-Vasopressin SPA, HEK293 membranes)
Conditions: membranes of HEK293 cells transiently transfected with human V1a receptor, Ki by Cheng-Prussoff, read-out: pKi (hV1a) (converted)
Procedure, shortened: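 HEK293 membranes transiently expressing cloned human V1a receptor, bound to yttrium silicate SPA beads in Tris/NaCl/KCl/CaCl2/MgCl2 buffer. Test compounds in 2% DMSO competed with 3H-vasopressin (4 nM solution added) for 1 h at room temperature; non-specific binding defined with cold vasopressin. IC50 from non-linear fit, Ki via Cheng-Prusoff.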

T1 sequence (P37288 whole entry): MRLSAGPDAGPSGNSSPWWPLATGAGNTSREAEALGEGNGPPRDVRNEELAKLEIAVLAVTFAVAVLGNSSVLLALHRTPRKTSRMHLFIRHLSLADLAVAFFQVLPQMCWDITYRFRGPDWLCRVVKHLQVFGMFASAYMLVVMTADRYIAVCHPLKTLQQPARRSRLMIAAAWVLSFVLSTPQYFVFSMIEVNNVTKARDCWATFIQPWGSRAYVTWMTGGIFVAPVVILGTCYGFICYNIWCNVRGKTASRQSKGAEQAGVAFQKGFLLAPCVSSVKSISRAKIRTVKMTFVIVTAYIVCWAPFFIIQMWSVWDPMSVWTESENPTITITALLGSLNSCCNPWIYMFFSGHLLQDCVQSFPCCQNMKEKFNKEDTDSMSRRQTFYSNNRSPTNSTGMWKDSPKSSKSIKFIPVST

Cc1nc([C@H]2CC[C@H](c3nnc4n3-c3ccc(Cl)cc3CNC4)CC2)sc1Cl [Example 102, trans-8-Chloro-1-[4-(5-chloro-4-methyl-thiazol-2-yl)-cyclohexyl]-5,6-dihydro-4H-2,3,5,10b-tetraaza-benzo[e]azulene]
Ki: 3.8 nM

Cc1nc([C@H]2CC[C@H](c3nnc4n3-c3ccc(Cl)cc3CN(C)C4)CC2)sc1Cl [Example 103, trans-8-Chloro-1-[4-(5-chloro-4-methyl-thiazol-2-yl)-cyclohexyl]-5-methyl-5,6-dihydro-4H-2,3,5,10b-tetraaza-benzo[e]azulene]
Ki: 1.58 nM

Cc1nc([C@H]2CC[C@H](c3nnc4n3-c3ccc(Cl)cc3CN(C(=O)OC(C)(C)C)C4)CC2)sc1C [Example 104, trans-8-Chloro-1-[4-(4,5-dimethyl-thiazol-2-yl)-cyclohexyl]-4H,6H-2,3,5,10b-tetraaza-benzo[e]azulene-5-carboxylic acid tert-butyl ester]
Ki: 0.794 nM

Cc1nc([C@H]2CC[C@H](c3nnc4n3-c3ccc(Cl)cc3CNC4)CC2)sc1C [Example 105, trans-8-Chloro-1-[4-(4,5-dimethyl-thiazol-2-yl)-cyclohexyl]-5,6-dihydro-4H-2,3,5,10b-tetraaza-benzo[e]azulene]
Ki: 21.9 nM

Cc1nc([C@H]2CC[C@H](c3nnc4n3-c3ccc(Cl)cc3CN(C)C4)CC2)sc1C [Example 106, trans-8-Chloro-1-[4-(4,5-dimethyl-thiazol-2-yl)-cyclohexyl]-5-methyl-5,6-dihydro-4H-2,3,5,10b-tetraaza-benzo[e]azulene]
Ki: 2.29 nM

CN1Cc2cc(Cl)ccc2-n2c(nnc2[C@H]2CC[C@H](c3noc4c3CCC4)CC2)C1 [Example 107, trans-8-Chloro-1-[4-(5,6-dihydro-4H-cyclopenta[d]isoxazol-3-yl)-cyclohexyl]-5-methyl-5,6-dihydro-4H-2,3,5,10b-tetraaza-benzo[e]azulene]
Ki: 1.58 nM

CC(C)(C)OC(=O)N1Cc2cc(Cl)ccc2-n2c(nnc2[C@H]2CC[C@H](c3noc(CO)c3CO)CC2)C1 [Example 108, trans-1-[4-(4,5-Bis-hydroxymethyl-isoxazol-3-yl)-cyclohexyl]-8-chloro-4H,6H-2,3,5,10b-tetraaza-benzo[e]azulene-5-carboxylic acid tert-butyl ester]
Ki: 12.6 nM

Clc1ccc2c(c1)CNCc1nnc([C@H]3CC[C@H](n4cccn4)CC3)n1-2 [Example 110, trans-8-Chloro-1-(4-pyrazol-1-yl-cyclohexyl)-5,6-dihydro-4H-2,3,5,10b-tetraaza-benzo[e]azulene]
Ki: 42.7 nM

CN1Cc2cc(Cl)ccc2-n2c(nnc2[C@H]2CC[C@H](n3cccn3)CC2)C1 [Example 111, trans-8-Chloro-5-methyl-1-(4-pyrazol-1-yl-cyclohexyl)-5,6-dihydro-4H-2,3,5,10b-tetraaza-benzo[e]azulene]
Ki: 17 nM

CC(C)(C)OC(=O)N1Cc2cc(Cl)ccc2-n2c(nnc2[C@H]2CC[C@@H](n3cccn3)CC2)C1 [Example 112, cis-8-Chloro-1-(4-pyrazol-1-yl-cyclohexyl)-4H,6H-2,3,5,10b-tetraaza-benzo[e]azulene-5-carboxylic acid tert-butyl ester]
Ki: 75.9 nM

Clc1ccc2c(c1)CNCc1nnc([C@H]3CC[C@@H](n4cccn4)CC3)n1-2 [Example 113, cis-8-Chloro-1-(4-pyrazol-1-yl-cyclohexyl)-5,6-dihydro-4H-2,3,5,10b-tetraaza-benzo[e]azulene]
Ki: 794 nM

CN1Cc2cc(Cl)ccc2-n2c(nnc2[C@H]2CC[C@@H](n3cccn3)CC2)C1 [Example 114, cis-8-Chloro-5-methyl-1-(4-pyrazol-1-yl-cyclohexyl)-5,6-dihydro-4H-2,3,5,10b-tetraaza-benzo[e]azulene]
Ki: 794 nM

Cc1cc(C)n([C@H]2CC[C@H](c3nnc4n3-c3ccc(Cl)cc3CN(C(=O)OC(C)(C)C)C4)CC2)n1 [Example 115, trans-8-Chloro-1-[4-(3,5-dimethyl-pyrazol-1-yl)-cyclohexyl]-4H,6H-2,3,5,10b-tetraaza-benzo[e]azulene-5-carboxylic acid tert-butyl ester]
Ki: 0.17 nM

Cc1cc(C)n([C@H]2CC[C@H](c3nnc4n3-c3ccc(Cl)cc3CNC4)CC2)n1 [Example 116, trans-8-Chloro-1-[4-(3,5-dimethyl-pyrazol-1-yl)-cyclohexyl]-5,6-dihydro-4H-2,3,5,10b-tetraaza-benzo[e]azulene]
Ki: 72.4 nM

Cc1cc(C)n([C@H]2CC[C@H](c3nnc4n3-c3ccc(Cl)cc3CN(C)C4)CC2)n1 [Example 117, trans-8-Chloro-1-[4-(3,5-dimethyl-pyrazol-1-yl)-cyclohexyl]-5-methyl-5,6-dihydro-4H-2,3,5,10b-tetraaza-benzo[e]azulene]
Ki: 6.92 nM

Cc1nn([C@H]2CC[C@H](c3nnc4n3-c3ccc(Cl)cc3CN(C(=O)OC(C)(C)C)C4)CC2)c(C)c1C [Example 118, trans-8-Chloro-1-[4-(3,4,5-trimethyl-pyrazol-1-yl)-cyclohexyl]-4H,6H-2,3,5,10b-tetraaza-benzo[e]azulene-5-carboxylic acid tert-butyl ester]
Ki: 0.832 nM

Cc1nn([C@H]2CC[C@H](c3nnc4n3-c3ccc(Cl)cc3CNC4)CC2)c(C)c1C [Example 119, trans-8-Chloro-1-[4-(3,4,5-trimethyl-pyrazol-1-yl)-cyclohexyl]-5,6-dihydro-4H-2,3,5,10b-tetraaza-benzo[e]azulene]
Ki: 2.19 nM

Cc1nn([C@H]2CC[C@H](c3nnc4n3-c3ccc(Cl)cc3CN(C)C4)CC2)c(C)c1C [Example 120, trans-8-Chloro-1-[4-(3,4,5-trimethyl-pyrazol-1-yl)-cyclohexyl]-5-methyl-5,6-dihydro-4H-2,3,5,10b-tetraaza-benzo[e]azulene]
Ki: 1.95 nM
